Results reported in the supplement of paper PMC13380429.

Key:
Settings in all cases: 72 h
[1] = test system: Caco-2; test: cell viability relative to DMSO; higher = less toxic
[2] = test system: Calu-3; test: as above
[3] = test system: HepG2; test: as above
[4] = test system: U2OS; test: as above
[5] = test system: Vero E6; test: as above
[6] = test system: Caco-2; test: relative viability EC50 (midpoint between 100% and the lowest measured viability); higher = less toxic
[7] = test system: Calu-3; test: as above
[8] = test system: HepG2; test: as above
[9] = test system: U2OS; test: as above
[10] = test system: Vero E6; test: as above
[11] = test system: Caco-2; test: drug sensitivity score (DSS) for viability; higher = more toxic; extreme values may be limits of the assay
[12] = test system: Calu-3; test: as above
[13] = test system: HepG2; test: as above
[14] = test system: U2OS; test: as above
[15] = test system: Vero E6; test: as above

COc1cc(N)c(Cl)cc1C(=O)OCCN1CCCCC1
cell viability ([1]; 1 nM): 88.3% | cell viability ([1]; 10 nM): 97.6% | cell viability ([1]; 100 nM): 86% | cell viability ([1]; 1000 nM): 100% | cell viability ([1]; 10000 nM): 110% | cell viability ([2]; 1 nM): 93.8% | cell viability ([2]; 10 nM): 108% | cell viability ([2]; 100 nM): 102% | cell viability ([2]; 1000 nM): 103% | cell viability ([2]; 10000 nM): 102% | cell viability ([3]; 1 nM): 112% | cell viability ([3]; 10 nM): 96.9% | cell viability ([3]; 100 nM): 106% | cell viability ([3]; 1000 nM): 94.9% | cell viability ([3]; 10000 nM): 103% | cell viability ([4]; 1 nM): 93.9% | cell viability ([4]; 10 nM): 99% | cell viability ([4]; 100 nM): 95.5% | cell viability ([4]; 1000 nM): 100% | cell viability ([4]; 10000 nM): 108% | cell viability ([5]; 1 nM): 96.3% | cell viability ([5]; 10 nM): 97.3% | cell viability ([5]; 100 nM): 98.7% | cell viability ([5]; 1000 nM): 99.3% | cell viability ([5]; 10000 nM): 99.5% | relative viability EC50 [6]: > 10 µM | relative viability EC50 [7]: > 10 µM | relative viability EC50 [8]: > 10 µM | relative viability EC50 [9]: > 10 µM | relative viability EC50 [10]: > 10 µM | drug sensitivity score [11]: 0 | drug sensitivity score [12]: 0 | drug sensitivity score [13]: 0 | drug sensitivity score [14]: 0 | drug sensitivity score [15]: 0

COc1ccc(CN2C(=O)C(=O)c3cc(OC(F)(F)F)ccc32)cc1
cell viability ([1]; 1 nM): 90.2% | cell viability ([1]; 10 nM): 100% | cell viability ([1]; 100 nM): 89.8% | cell viability ([1]; 1000 nM): 85.5% | cell viability ([1]; 10000 nM): 38.8% | cell viability ([2]; 1 nM): 98.3% | cell viability ([2]; 10 nM): 96.7% | cell viability ([2]; 100 nM): 110% | cell viability ([2]; 1000 nM): 83% | cell viability ([2]; 10000 nM): 41.7% | cell viability ([3]; 1 nM): 97.7% | cell viability ([3]; 10 nM): 108% | cell viability ([3]; 100 nM): 109% | cell viability ([3]; 1000 nM): 103% | cell viability ([3]; 10000 nM): 41.8% | cell viability ([4]; 1 nM): 99% | cell viability ([4]; 10 nM): 99.7% | cell viability ([4]; 100 nM): 92.8% | cell viability ([4]; 1000 nM): 25.8% | cell viability ([4]; 10000 nM): 13.4% | cell viability ([5]; 1 nM): 107% | cell viability ([5]; 10 nM): 107% | cell viability ([5]; 100 nM): 103% | cell viability ([5]; 1000 nM): 86% | cell viability ([5]; 10000 nM): 28.8% | relative viability EC50 [6]: 1.66 µM | relative viability EC50 [7]: 1.43 µM | relative viability EC50 [8]: 3.43 µM | relative viability EC50 [9]: 0.374 µM | relative viability EC50 [10]: 1.75 µM | drug sensitivity score [11]: 5.4 | drug sensitivity score [12]: 5.7 | drug sensitivity score [13]: 2.9 | drug sensitivity score [14]: 14.6 | drug sensitivity score [15]: 6.2

Cc1cccc(Oc2nc3c(C)cccn3c(=O)c2/C=C(\C#N)c2nc3ccccc3s2)c1
cell viability ([1]; 1 nM): 93.1% | cell viability ([1]; 10 nM): 98.3% | cell viability ([1]; 100 nM): 98.3% | cell viability ([1]; 1000 nM): 94% | cell viability ([1]; 10000 nM): 98.6% | cell viability ([2]; 1 nM): 97% | cell viability ([2]; 10 nM): 94.1% | cell viability ([2]; 100 nM): 98.6% | cell viability ([2]; 1000 nM): 102% | cell viability ([2]; 10000 nM): 112% | cell viability ([3]; 1 nM): 100% | cell viability ([3]; 10 nM): 90.2% | cell viability ([3]; 100 nM): 101% | cell viability ([3]; 1000 nM): 94.6% | cell viability ([3]; 10000 nM): 100% | cell viability ([4]; 1 nM): 95.2% | cell viability ([4]; 10 nM): 99.1% | cell viability ([4]; 100 nM): 96% | cell viability ([4]; 1000 nM): 102% | cell viability ([4]; 10000 nM): 106% | cell viability ([5]; 1 nM): 103% | cell viability ([5]; 10 nM): 95.5% | cell viability ([5]; 100 nM): 99.4% | cell viability ([5]; 1000 nM): 91.4% | cell viability ([5]; 10000 nM): 106% | relative viability EC50 [6]: > 10 µM | relative viability EC50 [7]: > 10 µM | relative viability EC50 [8]: > 10 µM | relative viability EC50 [9]: > 10 µM | relative viability EC50 [10]: > 10 µM | drug sensitivity score [11]: 0 | drug sensitivity score [12]: 0 | drug sensitivity score [13]: 0 | drug sensitivity score [14]: 0 | drug sensitivity score [15]: 0

Cc1ccccc1N1CCN(S(=O)(=O)C[C@]23CC[C@H](C[C@@H]2NC(=O)[C@@H](N)CCS(C)(=O)=O)C3(C)C)CC1
cell viability ([1]; 1 nM): 97.5% | cell viability ([1]; 10 nM): 93.3% | cell viability ([1]; 100 nM): 90% | cell viability ([1]; 1000 nM): 108% | cell viability ([1]; 10000 nM): 96.5% | cell viability ([2]; 1 nM): 98.2% | cell viability ([2]; 10 nM): 103% | cell viability ([2]; 100 nM): 94.3% | cell viability ([2]; 1000 nM): 105% | cell viability ([2]; 10000 nM): 99.5% | cell viability ([3]; 1 nM): 109% | cell viability ([3]; 10 nM): 94.7% | cell viability ([3]; 100 nM): 107% | cell viability ([3]; 1000 nM): 111% | cell viability ([3]; 10000 nM): 108% | cell viability ([4]; 1 nM): 95.3% | cell viability ([4]; 10 nM): 96.4% | cell viability ([4]; 100 nM): 95.8% | cell viability ([4]; 1000 nM): 101% | cell viability ([4]; 10000 nM): 103% | cell viability ([5]; 1 nM): 101% | cell viability ([5]; 10 nM): 93.8% | cell viability ([5]; 100 nM): 98% | cell viability ([5]; 1000 nM): 87.6% | cell viability ([5]; 10000 nM): 110% | relative viability EC50 [6]: > 10 µM | relative viability EC50 [7]: > 10 µM | relative viability EC50 [8]: > 10 µM | relative viability EC50 [9]: > 10 µM | relative viability EC50 [10]: > 10 µM | drug sensitivity score [11]: 0 | drug sensitivity score [12]: 0 | drug sensitivity score [13]: 0 | drug sensitivity score [14]: 0 | drug sensitivity score [15]: 0

O=C(Nc1cccc(Cl)c1)c1ccccn1
cell viability ([1]; 1 nM): 87.9% | cell viability ([1]; 10 nM): 102% | cell viability ([1]; 100 nM): 98% | cell viability ([1]; 1000 nM): 96.8% | cell viability ([1]; 10000 nM): 102% | cell viability ([2]; 1 nM): 94.5% | cell viability ([2]; 10 nM): 95.8% | cell viability ([2]; 100 nM): 95.9% | cell viability ([2]; 1000 nM): 114% | cell viability ([2]; 10000 nM): 102% | cell viability ([3]; 1 nM): 111% | cell viability ([3]; 10 nM): 100% | cell viability ([3]; 100 nM): 105% | cell viability ([3]; 1000 nM): 97.3% | cell viability ([3]; 10000 nM): 107% | cell viability ([4]; 1 nM): 102% | cell viability ([4]; 10 nM): 104% | cell viability ([4]; 100 nM): 99.8% | cell viability ([4]; 1000 nM): 108% | cell viability ([4]; 10000 nM): 101% | cell viability ([5]; 1 nM): 107% | cell viability ([5]; 10 nM): 102% | cell viability ([5]; 100 nM): 107% | cell viability ([5]; 1000 nM): 99.3% | cell viability ([5]; 10000 nM): 103% | relative viability EC50 [6]: > 10 µM | relative viability EC50 [7]: > 10 µM | relative viability EC50 [8]: > 10 µM | relative viability EC50 [9]: > 10 µM | relative viability EC50 [10]: > 10 µM | drug sensitivity score [11]: 0 | drug sensitivity score [12]: 0 | drug sensitivity score [13]: 0 | drug sensitivity score [14]: 0 | drug sensitivity score [15]: 0

O=C1NN(C(=O)Nc2ccc(Br)cc2)[C@@H](c2ccccc2)[C@@H]1c1ccccc1
cell viability ([1]; 1 nM): 103% | cell viability ([1]; 10 nM): 98.8% | cell viability ([1]; 100 nM): 100% | cell viability ([1]; 1000 nM): 98.6% | cell viability ([1]; 10000 nM): 96.7% | cell viability ([2]; 1 nM): 96.5% | cell viability ([2]; 10 nM): 90.4% | cell viability ([2]; 100 nM): 93.8% | cell viability ([2]; 1000 nM): 91.2% | cell viability ([2]; 10000 nM): 86% | cell viability ([3]; 1 nM): 104% | cell viability ([3]; 10 nM): 89.3% | cell viability ([3]; 100 nM): 91.1% | cell viability ([3]; 1000 nM): 106% | cell viability ([3]; 10000 nM): 89.1% | cell viability ([4]; 1 nM): 97.3% | cell viability ([4]; 10 nM): 95.4% | cell viability ([4]; 100 nM): 98.5% | cell viability ([4]; 1000 nM): 94.8% | cell viability ([4]; 10000 nM): 101% | relative viability EC50 [6]: > 10 µM | relative viability EC50 [7]: > 10 µM | relative viability EC50 [8]: > 10 µM | relative viability EC50 [9]: > 10 µM | drug sensitivity score [11]: 0 | drug sensitivity score [12]: 0.3 | drug sensitivity score [13]: 0 | drug sensitivity score [14]: 0
